Here are results for 4 compounds from patent publication US12521397B2, “Nucleotide analogs” (The Regents of the University of California, priority 2014, dated 2026).

In data set [1] the test system is human foreskin fibroblast (HFF) cells. The data set is described as follows: Cytotoxicity assay in primary human foreskin fibroblast cells (CellTiter-Glo). In kind it is cell-based. The settings on record: 7d incubation. The procedure: Cytotoxicity Assays in Primary Human Foreskin Fibroblast Cells. Cytotoxicity was also evaluated in human foreskin fibroblast (HFF) cells as they are a highly sensitive indicator of toxicity in a standard assay with 7 d of compound exposure. A total of 4000 cells/well are seeded in 384-well plates in cell culture media containing 2% fetal bovine serum and antibiotics. Following a 24 h incubation, 5-fold compound dilutions are performed in duplicate wells directly in the plates containing monolayers of HFF cells. At 7 d following compound addition, CellTiter-Glo reagent is added to each well and resulting luminescence is measured on a luminometer to assess the number of viable cells in each well. Data are then used to calculate CC50 values.
(ATP-based viability assays read luminescence as a measure of living cells.)

In the next data set the test system is HEK-293 cells. The data set is described as follows: Cytotoxicity assay in HEK-293 cells (trypan blue exclusion or CellTiter-Glo). In kind it is cell-based. As for the experimental part:
(§1) An origin-containing low risk or high risk HPV plasmid was co-transfected with homologous E1 and E2 protein expression vectors into HEK 293 cells. At 4 h post-transfection, cells were treated with test compound dilutions and then incubated for 48 h. HPV origin plasmid replication was detected after digestion with DpnI and exonuclease III to remove unreplicated transfected plasmids. Remaining replicated DNA was quantified by quantitative real time PCR (qPCR). In a parallel experiment in uninfected cells cytotoxicity was determined by trypan blue exclusion or CELLTITER-GLO® to find the concentration that reduced viable cell number by 50% (CC50). CC50 values were determined by trypan blue exclusion or CELLTITER-GLO® and the selectivity index calculated (Selectivity index=CC50/EC50). The low risk HPV tested was HPV-11, and the high-risk HPV tested was HPV-16 and HPV-18.
Cytotoxicity Assays in HEK-293 cells. Cytotoxicity assays are performed in concurrently with every antiviral assay using the same cell line and media to ensure the same compound exposure. For the antiviral studies against HPV11 in HEK-293 cells, transfected cells are seeded in duplicate plates. […] At 48 h following compound addition, CELLTITER-GLO® (Promega) is added to each well and luminescence is determined on a luminometer. […]

The subject of the next data set is HPV-11. The data set is described as follows: Low risk HPV origin plasmid replication assay (qPCR) in HEK 293 cells. In kind it is cell-based, human papillomavirus. As for the experimental part:
as §1
(Quantitative PCR measures a nucleic acid by following its amplification.)

For another data set, the system named is HPV-16 and HPV-18. The data set is described as follows: High risk HPV origin plasmid replication assay (qPCR) in HEK 293 cells. The data set is classed as cell-based, human papillomavirus. The settings on record: read-out: High Risk (EC50). The procedure: as §1
Where [2] appears, read: low risk HPV tested was HPV-11, HEK 293 cells, 48 h incubation, read-out: Low Risk (EC50).

Like-named read-outs stand apart in the source and are kept apart here.

By CC50 is commonly meant the concentration giving 50% cytotoxicity. The EC50 is the concentration at which the effect is half-maximal. Usually EC90 stands for the point of the concentration-response curve where the effect stands at 90%. Lower therefore signals an effect from little substance. For the compound `CCOC(=O)[C@H](C)NP(=O)(COCCn1cnc2c(=O)[nH]c(N)nc21)Oc1ccccc1` (stereo partly shown) [PMEG phenoxy amidate Example 10], the half-maximal cytotoxic concentration (CC50) in data set [1] is 70.9 ± 4.07 µM; in the data set with HEK-293 cells (CellTiter-Glo, 2d incubation, read-out: Cytotoxicity CC50, HEK 293 (2d incubation)) it was above 100 µM; in the data set on HEK-293 cells (Table B, HEK-293 cells, parallel to HPV-11 antiviral assay, read-out: CC50), above 100 µM. Also, a half-maximal response in the data set with HPV-11 (Human papillomavirus, HEK293) (EC50) required 7.56 ± 0.63 µM. Moreover, in the data set on HPV-11 (Human papillomavirus, HEK293), the 90% effect concentration (EC90) is above 100 µM.
For the compound `Nc1nc2c(ncn2CCOCP(=O)(O)O)c(=O)[nH]1` [PMEG, 9-(2-phosphonylmethoxyethyl) guanine, reference compound], in the data set with HPV-11 (setting [2]), the EC50 lay in the range of 3 to 30 µM.
For the compound `CCCCCCCCCCCCCCCCCCOCCOP(=O)(O)COCCn1cnc2c(=O)[nH]c(N)nc21` [ODE-PMEG, Octadecyloxyethyl-Phosphonomethoxyethylguanine], the EC50 in the data set on HPV-16 and HPV-18 (high-risk HPV tested was HPV-16 and HPV-18, HEK 293 cells, 48 h incubation) was below 0.3 µM; in the data set with HPV-11 (setting [2]) it was below 0.3 µM.
On to `CCCCCCCCCCCCCCCCCCOCC(COP(=O)(O)COCCn1cnc2c(=O)[nH]c(N)nc21)OCc1ccccc1` (stereo not shown) [ODBG-PMEG, 1-O-Octadecyl-2-O-benzyl-sn-glyceryl PMEG], for which the EC50 in the data set on HPV-16 and HPV-18 (Human papillomavirus, HEK293, 48 h) was in the range of 0.3 to 3 µM; in the data set with HPV-11 (Human papillomavirus, HEK293, low risk HPV tested was HPV-11, HEK 293 cells, 48 h incubation, read-out: Low Risk (EC50)), 0.3 to 3 µM.
